From the supplement of paper PMC10307832

Tests used:
Test in all cases: relative viability (nuclei count vs DMSO), 5 days (fraction); higher = more cells survive
[1] = compound: Cc1ccc(C(=O)Nc2ccc(CN3CCN(C)CC3)c(C(F)(F)F)c2)cc1C#Cc1cnc2cccnn12 [Ponatinib] + CC1(C)CCC(c2ccc(Cl)cc2)=C(CN2CCN(c3ccc(C(=O)NS(=O)(=O)c4ccc(N[C@H](CCN5CCOCC5)CSc5ccccc5)c(S(=O)(=O)C(F)(F)F)c4)cc3)CC2)C1 [Navitoclax] (partner 0.5 µM)
Outline: (§1)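 Dosing by pin tool came one day after lung cancer cell lines were seeded in 1536-well plates, using either one drug or a fixed anchor-drug dose plus five library-drug doses (not always all listed) in √10 steps. After 5 days, nuclei were counted on 4× images. Relative viability is treated-well nuclei count divided by vehicle-well nuclei count, and values are medians of duplicate plates.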

[2] = compound: Cc1ccc(Nc2nccc(N(C)c3ccc4c(C)n(C)nc4c3)n2)cc1S(N)(=O)=O [Pazopanib] + CC1(C)CCC(c2ccc(Cl)cc2)=C(CN2CCN(c3ccc(C(=O)NS(=O)(=O)c4ccc(N[C@H](CCN5CCOCC5)CSc5ccccc5)c(S(=O)(=O)C(F)(F)F)c4)cc3)CC2)C1 [Navitoclax] (partner 0.5 µM)
Outline: as §1

[3] = compound: Cc1ccc(Nc2nccc(N(C)c3ccc4c(C)n(C)nc4c3)n2)cc1S(N)(=O)=O [Pazopanib] + CC(=O)c1c(C)c2cnc(Nc3ccc(N4CCNCC4)cn3)nc2n(C2CCCC2)c1=O [Palbociclib] (partner 0.5 µM)
Outline: as §1

[4] = compound: Cc1ccc(Nc2nccc(N(C)c3ccc4c(C)n(C)nc4c3)n2)cc1S(N)(=O)=O [Pazopanib] + C[C@]1(O)C[C@@H](c2nc(-c3ccc4ccc(-c5ccccc5)nc4c3)c3c(N)nccn32)C1 [Linsitinib] (partner 1 µM)
Outline: as §1

Question: UMC-11 was tested. Which relative viability ([1]; first compound 0.002 µM) did it give?
Answer: 0.311

Question: What about the relative viability ([1]; first compound 0.006325 µM) of the same cell line?
Answer: 0.354

Question: And the relative viability ([1]; first compound 0.06325 µM)?
Answer: 0.38

Question: And the relative viability ([1]; first compound 0.2 µM)?
Answer: 0.345

Question: And the relative viability ([2]; first compound 0.01 µM)?
Answer: 0.318

Question: And the relative viability ([2]; first compound 0.03162 µM)?
Answer: 0.312

Question: And the relative viability ([2]; first compound 0.1 µM)?
Answer: 0.303

Question: What about the relative viability ([2]; first compound 0.3162 µM) of the same cell line?
Answer: 0.268

Question: What about the relative viability ([2]; first compound 1 µM) of the same cell line?
Answer: 0.348

Question: What about the relative viability ([3]; first compound 0.01 µM) of the same cell line?
Answer: 0.305

Question: And the relative viability ([3]; first compound 0.03162 µM)?
Answer: 0.347

Question: What about the relative viability ([3]; first compound 0.1 µM) of the same cell line?
Answer: 0.31

Question: And the relative viability ([3]; first compound 0.3162 µM)?
Answer: 0.358

Question: What about the relative viability ([3]; first compound 1 µM) of the same cell line?
Answer: 0.32

Question: And the relative viability ([4]; first compound 0.01 µM)?
Answer: 0.974

Question: What about the relative viability ([4]; first compound 0.03162 µM) of the same cell line?
Answer: 1.06

Question: And the relative viability ([4]; first compound 0.1 µM)?
Answer: 1.1

Question: What about the relative viability ([4]; first compound 0.3162 µM) of the same cell line?
Answer: 1

Question: And the relative viability ([4]; first compound 1 µM)?
Answer: 1.11
